Measured values taken from PubChem BioAssay (NCI).
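Assay format: 96-well plates, 48-hour exposure. GI50 is the concentration that inhibits growth by half. TGI: concentration producing complete growth inhibition.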

tested on: SK-MEL-28 melanoma; assay: NCI-60 cell line screen, 48 h

Row | SMILES | GI50 | TGI
1 | Cc1ccc2[c](c1)[Sn]([c]1ccccc1)([c]1ccccc1)[c]1cc(C)ccc1N2C | 64.5 µM | > 100 µM

tested on: SK-MEL-5 melanoma; assay: NCI-60 cell line screen, 48 h

Row | SMILES | TGI | GI50
2 | Cc1ccc(C)c(N2C(=O)C(=O)C(c3nc4ccccc4o3)/C(=N/N)C2=O)c1 (configuration not stated) | > 100 µM | 
3 | CCCCCCCCCCCCCCCCCCC1=C(O)C(=O)C=C(OC)C1=O | > 100 µM | 
4 | CC(=O)OCCOCNC(=S)N/N=C/c1ccc([N+](=O)[O-])s1 | 81.7 µM | 
5 | Cc1ccc(C)c(N2C(=O)C(=O)C(c3nc4ccccc4o3)/C(=N\NC(=O)c3ccccc3O)C2=O)c1 (configuration not stated) | > 100 µM | 
6 | c1ccc2c(c1)OCCOCCOc1ccccc1OCCO2 | > 100 µM | 
7 | Cc1ccc2[c](c1)[Sn]([c]1ccccc1)([c]1ccccc1)[c]1cc(C)ccc1N2C | > 100 µM | 33.2 µM

tested on: SK-OV-3 ovarian; assay: NCI-60 cell line screen, 48 h

Row | SMILES | TGI | GI50
8 | NC(=S)N/N=C1\CCCC\C1=C/c1ccccc1 | > 100 µM | 
9 | Cc1ccc(C)c(N2C(=O)C(=O)C(c3nc4ccccc4o3)/C(=N/N)C2=O)c1 (configuration not stated) | > 100 µM | 
10 | CCCCCCCCCCCCCCCCCCC1=C(O)C(=O)C=C(OC)C1=O | > 100 µM | 
11 | CC(=O)OCCOCNC(=S)N/N=C/c1ccc([N+](=O)[O-])s1 | > 100 µM | 
12 | Cc1ccc(C)c(N2C(=O)C(=O)C(c3nc4ccccc4o3)/C(=N\NC(=O)c3ccccc3O)C2=O)c1 (configuration not stated) | > 100 µM | 
13 | c1ccc2c(c1)OCCOCCOc1ccccc1OCCO2 | > 100 µM | 
14 | Cc1ccc2[c](c1)[Sn]([c]1ccccc1)([c]1ccccc1)[c]1cc(C)ccc1N2C | > 100 µM | > 100 µM

tested on: SN12C renal; assay: NCI-60 cell line screen, 48 h

Row | SMILES | TGI | GI50
15 | NC(=S)N/N=C1\CCCC\C1=C/c1ccccc1 | > 100 µM | 
16 | Cc1ccc(C)c(N2C(=O)C(=O)C(c3nc4ccccc4o3)/C(=N/N)C2=O)c1 (configuration not stated) | > 100 µM | 
17 | CCCCCCCCCCCCCCCCCCC1=C(O)C(=O)C=C(OC)C1=O | > 100 µM | 
18 | CC(=O)OCCOCNC(=S)N/N=C/c1ccc([N+](=O)[O-])s1 | > 100 µM | 
19 | Cc1ccc(C)c(N2C(=O)C(=O)C(c3nc4ccccc4o3)/C(=N\NC(=O)c3ccccc3O)C2=O)c1 (configuration not stated) | > 100 µM | 
20 | c1ccc2c(c1)OCCOCCOc1ccccc1OCCO2 | > 100 µM | 
21 | Cc1ccc2[c](c1)[Sn]([c]1ccccc1)([c]1ccccc1)[c]1cc(C)ccc1N2C | > 100 µM | > 100 µM

tested on: SNB-19 CNS; assay: NCI-60 cell line screen, 48 h

Row | SMILES | TGI | GI50
22 | NC(=S)N/N=C1\CCCC\C1=C/c1ccccc1 | > 100 µM | 
23 | Cc1ccc(C)c(N2C(=O)C(=O)C(c3nc4ccccc4o3)/C(=N/N)C2=O)c1 (configuration not stated) | > 100 µM | 
24 | CCCCCCCCCCCCCCCCCCC1=C(O)C(=O)C=C(OC)C1=O | > 100 µM | 
25 | CC(=O)OCCOCNC(=S)N/N=C/c1ccc([N+](=O)[O-])s1 | > 100 µM | 
26 | Cc1ccc(C)c(N2C(=O)C(=O)C(c3nc4ccccc4o3)/C(=N\NC(=O)c3ccccc3O)C2=O)c1 (configuration not stated) | > 100 µM | 
27 | c1ccc2c(c1)OCCOCCOc1ccccc1OCCO2 | > 100 µM | 
28 | Cc1ccc2[c](c1)[Sn]([c]1ccccc1)([c]1ccccc1)[c]1cc(C)ccc1N2C | > 100 µM | > 100 µM

tested on: SNB-75 CNS; assay: NCI-60 cell line screen, 48 h

Row | SMILES | TGI | GI50
29 | NC(=S)N/N=C1\CCCC\C1=C/c1ccccc1 | > 100 µM | 
30 | Cc1ccc(C)c(N2C(=O)C(=O)C(c3nc4ccccc4o3)/C(=N/N)C2=O)c1 (configuration not stated) | > 100 µM | 
31 | CCCCCCCCCCCCCCCCCCC1=C(O)C(=O)C=C(OC)C1=O | > 100 µM | 
32 | CC(=O)OCCOCNC(=S)N/N=C/c1ccc([N+](=O)[O-])s1 | > 100 µM | 
33 | Cc1ccc(C)c(N2C(=O)C(=O)C(c3nc4ccccc4o3)/C(=N\NC(=O)c3ccccc3O)C2=O)c1 (configuration not stated) | > 100 µM | 
34 | c1ccc2c(c1)OCCOCCOc1ccccc1OCCO2 | > 100 µM | 
35 | Cc1ccc2[c](c1)[Sn]([c]1ccccc1)([c]1ccccc1)[c]1cc(C)ccc1N2C | > 100 µM | > 100 µM

tested on: SNB-78 CNS; assay: NCI-60 cell line screen, 48 h

Row | SMILES | TGI | GI50
36 | NC(=S)N/N=C1\CCCC\C1=C/c1ccccc1 | > 100 µM | 
37 | Cc1ccc(C)c(N2C(=O)C(=O)C(c3nc4ccccc4o3)/C(=N/N)C2=O)c1 (configuration not stated) | > 100 µM | 
38 | CCCCCCCCCCCCCCCCCCC1=C(O)C(=O)C=C(OC)C1=O | > 100 µM | 
39 | CC(=O)OCCOCNC(=S)N/N=C/c1ccc([N+](=O)[O-])s1 | > 100 µM | 
40 | Cc1ccc(C)c(N2C(=O)C(=O)C(c3nc4ccccc4o3)/C(=N\NC(=O)c3ccccc3O)C2=O)c1 (configuration not stated) | > 100 µM | 
41 | c1ccc2c(c1)OCCOCCOc1ccccc1OCCO2 | > 100 µM | 
42 | Cc1ccc2[c](c1)[Sn]([c]1ccccc1)([c]1ccccc1)[c]1cc(C)ccc1N2C | > 100 µM | 46.2 µM

tested on: SR leukemia; assay: NCI-60 cell line screen, 48 h

Row | SMILES | TGI | GI50
43 | Cc1ccc(C)c(N2C(=O)C(=O)C(c3nc4ccccc4o3)/C(=N/N)C2=O)c1 (configuration not stated) | > 100 µM | 
44 | CCCCCCCCCCCCCCCCCCC1=C(O)C(=O)C=C(OC)C1=O | > 100 µM | 
45 | CC(=O)OCCOCNC(=S)N/N=C/c1ccc([N+](=O)[O-])s1 | > 100 µM | 
46 | Cc1ccc(C)c(N2C(=O)C(=O)C(c3nc4ccccc4o3)/C(=N\NC(=O)c3ccccc3O)C2=O)c1 (configuration not stated) | 76.2 µM | 
47 | Cc1ccc2[c](c1)[Sn]([c]1ccccc1)([c]1ccccc1)[c]1cc(C)ccc1N2C |  | 0.116 µM

tested on: SW-620 colon; assay: NCI-60 cell line screen, 48 h

Row | SMILES | TGI | GI50
48 | NC(=S)N/N=C1\CCCC\C1=C/c1ccccc1 | > 100 µM | 
49 | Cc1ccc(C)c(N2C(=O)C(=O)C(c3nc4ccccc4o3)/C(=N/N)C2=O)c1 (configuration not stated) | > 100 µM | 
50 | CCCCCCCCCCCCCCCCCCC1=C(O)C(=O)C=C(OC)C1=O | > 100 µM | 
51 | CC(=O)OCCOCNC(=S)N/N=C/c1ccc([N+](=O)[O-])s1 | > 100 µM | 
52 | Cc1ccc(C)c(N2C(=O)C(=O)C(c3nc4ccccc4o3)/C(=N\NC(=O)c3ccccc3O)C2=O)c1 (configuration not stated) | > 100 µM | 
53 | c1ccc2c(c1)OCCOCCOc1ccccc1OCCO2 | 77.1 µM | 
54 | Cc1ccc2[c](c1)[Sn]([c]1ccccc1)([c]1ccccc1)[c]1cc(C)ccc1N2C | 53.7 µM | 18.9 µM

tested on: TK-10 renal; assay: NCI-60 cell line screen, 48 h

Row | SMILES | TGI | GI50
55 | NC(=S)N/N=C1\CCCC\C1=C/c1ccccc1 | > 100 µM | 
56 | Cc1ccc(C)c(N2C(=O)C(=O)C(c3nc4ccccc4o3)/C(=N/N)C2=O)c1 (configuration not stated) | > 100 µM | 
57 | CCCCCCCCCCCCCCCCCCC1=C(O)C(=O)C=C(OC)C1=O | > 100 µM | 
58 | CC(=O)OCCOCNC(=S)N/N=C/c1ccc([N+](=O)[O-])s1 | > 100 µM | 
59 | Cc1ccc(C)c(N2C(=O)C(=O)C(c3nc4ccccc4o3)/C(=N\NC(=O)c3ccccc3O)C2=O)c1 (configuration not stated) | > 100 µM | 
60 | c1ccc2c(c1)OCCOCCOc1ccccc1OCCO2 | > 100 µM | 
61 | Cc1ccc2[c](c1)[Sn]([c]1ccccc1)([c]1ccccc1)[c]1cc(C)ccc1N2C | > 100 µM | > 100 µM

tested on: U251 CNS; assay: NCI-60 cell line screen, 48 h

Row | SMILES | TGI | GI50
62 | NC(=S)N/N=C1\CCCC\C1=C/c1ccccc1 | > 100 µM | 
63 | Cc1ccc(C)c(N2C(=O)C(=O)C(c3nc4ccccc4o3)/C(=N/N)C2=O)c1 (configuration not stated) | > 100 µM | 
64 | CCCCCCCCCCCCCCCCCCC1=C(O)C(=O)C=C(OC)C1=O | > 100 µM | 
65 | CC(=O)OCCOCNC(=S)N/N=C/c1ccc([N+](=O)[O-])s1 | > 100 µM | 
66 | Cc1ccc(C)c(N2C(=O)C(=O)C(c3nc4ccccc4o3)/C(=N\NC(=O)c3ccccc3O)C2=O)c1 (configuration not stated) | > 100 µM | 
67 | c1ccc2c(c1)OCCOCCOc1ccccc1OCCO2 | > 100 µM | 
68 | Cc1ccc2[c](c1)[Sn]([c]1ccccc1)([c]1ccccc1)[c]1cc(C)ccc1N2C | > 100 µM | 87.5 µM

tested on: UACC-257 melanoma; assay: NCI-60 cell line screen, 48 h

Row | SMILES | TGI | GI50
69 | NC(=S)N/N=C1\CCCC\C1=C/c1ccccc1 | 44.4 µM | 
70 | Cc1ccc(C)c(N2C(=O)C(=O)C(c3nc4ccccc4o3)/C(=N/N)C2=O)c1 (configuration not stated) | > 100 µM | 
71 | CCCCCCCCCCCCCCCCCCC1=C(O)C(=O)C=C(OC)C1=O | > 100 µM | 
72 | CC(=O)OCCOCNC(=S)N/N=C/c1ccc([N+](=O)[O-])s1 | 66.7 µM | 
73 | Cc1ccc(C)c(N2C(=O)C(=O)C(c3nc4ccccc4o3)/C(=N\NC(=O)c3ccccc3O)C2=O)c1 (configuration not stated) | > 100 µM | 
74 | c1ccc2c(c1)OCCOCCOc1ccccc1OCCO2 | > 100 µM | 
75 | Cc1ccc2[c](c1)[Sn]([c]1ccccc1)([c]1ccccc1)[c]1cc(C)ccc1N2C | > 100 µM | 57.8 µM

tested on: UACC-62 melanoma; assay: NCI-60 cell line screen, 48 h

Row | SMILES | TGI | GI50
76 | NC(=S)N/N=C1\CCCC\C1=C/c1ccccc1 | > 100 µM | 
77 | Cc1ccc(C)c(N2C(=O)C(=O)C(c3nc4ccccc4o3)/C(=N/N)C2=O)c1 (configuration not stated) | > 100 µM | 
78 | CCCCCCCCCCCCCCCCCCC1=C(O)C(=O)C=C(OC)C1=O | > 100 µM | 
79 | CC(=O)OCCOCNC(=S)N/N=C/c1ccc([N+](=O)[O-])s1 | > 100 µM | 
80 | Cc1ccc(C)c(N2C(=O)C(=O)C(c3nc4ccccc4o3)/C(=N\NC(=O)c3ccccc3O)C2=O)c1 (configuration not stated) | 84.4 µM | 
81 | c1ccc2c(c1)OCCOCCOc1ccccc1OCCO2 | > 100 µM | 
82 | Cc1ccc2[c](c1)[Sn]([c]1ccccc1)([c]1ccccc1)[c]1cc(C)ccc1N2C | > 100 µM | 20.9 µM

tested on: UO-31 renal; assay: NCI-60 cell line screen, 48 h

Row | SMILES | TGI | GI50
83 | NC(=S)N/N=C1\CCCC\C1=C/c1ccccc1 | > 100 µM | 
84 | Cc1ccc(C)c(N2C(=O)C(=O)C(c3nc4ccccc4o3)/C(=N/N)C2=O)c1 (configuration not stated) | > 100 µM | 
85 | CCCCCCCCCCCCCCCCCCC1=C(O)C(=O)C=C(OC)C1=O | > 100 µM | 
86 | CC(=O)OCCOCNC(=S)N/N=C/c1ccc([N+](=O)[O-])s1 | > 100 µM | 
87 | Cc1ccc(C)c(N2C(=O)C(=O)C(c3nc4ccccc4o3)/C(=N\NC(=O)c3ccccc3O)C2=O)c1 (configuration not stated) | 87.6 µM | 
88 | c1ccc2c(c1)OCCOCCOc1ccccc1OCCO2 | > 100 µM | 
89 | Cc1ccc2[c](c1)[Sn]([c]1ccccc1)([c]1ccccc1)[c]1cc(C)ccc1N2C | > 100 µM | > 100 µM

tested on: XF 498 CNS; assay: NCI-60 cell line screen, 48 h

Row | SMILES | TGI | GI50
90 | Cc1ccc(C)c(N2C(=O)C(=O)C(c3nc4ccccc4o3)/C(=N/N)C2=O)c1 (configuration not stated) | > 100 µM | 
91 | CCCCCCCCCCCCCCCCCCC1=C(O)C(=O)C=C(OC)C1=O | > 100 µM | 
92 | CC(=O)OCCOCNC(=S)N/N=C/c1ccc([N+](=O)[O-])s1 | > 100 µM | 
93 | Cc1ccc2[c](c1)[Sn]([c]1ccccc1)([c]1ccccc1)[c]1cc(C)ccc1N2C | > 100 µM | 63.6 µM
